Experimental data published in article PMC6820371, “Terbium-161 for PSMA-targeted radionuclide therapy of prostate cancer” (European Journal of Nuclear Medicine and Molecular Imaging, 2019).
“Also recorded” adds a separate entry of the source. Read-outs that look alike come from different tables or passages of the source. Marks after values point to notes of the source that are not given here.

Columns and labels:
[1] = system: PC-3 PIP tumor-bearing mice; settings: for Median Survival: control 19 days
Method: Athymic nude BALB/c mice were obtained from Charles River Laboratories (Sulzfeld, Germany) at the age of 5–6 weeks. […] Therapy studies were performed with mice inoculated with PC-3 PIP cells (4 × 10^6 cells in HBSS with Ca^2+/Mg^2+) on the right shoulder (Supplementary material).
Three groups of mice (n = 6) were injected with only saline, ^161Tb-PSMA-617 (5.0 MBq; 1 nmol/mouse), or ^161Tb-PSMA-617 (10 MBq; 1 nmol/mouse) at Day 0 of the therapy, 6 days after PC-3 PIP tumor cell inoculation (Table 1). The mice were monitored by measuring body weights and the tumor sizes every other day over 12 weeks. Mice were euthanized when pre-defined endpoint criteria were reached, or when the study was terminated at Day 84 (Supplementary material). The relative body weight (RBW) was defined as [BWx/ BW0], where BWx is the body weight in gram at a given day x, and BW0 the body weight in grams at Day 0. The tumor dimension was determined by measuring the longest tumor axis (L) and its perpendicular axis (W) with a digital caliper. The tumor volume (V) was calculated according to the eq. [V = 0.5 * (L * W^2)]. The relative tumor volume (RTV) was defined as [TVx/TV0], where TVx is the tumor volume in mm^3 at a given day x, and TV0 the tumor volume in mm^3 at Day 0.
The efficacy of the radionuclide therapy was assessed by the tumor growth delay (TGDx), which was calculated as the time required for the tumor volume to increase x-fold over the initial volume at Day 0. The tumor growth delay index [TGDIx = TGDx(T)/TGDx(C)] was calculated as the TGDx ratio of treated mice (T) over control mice (C) for a 2-fold (x = 2, TGD2) and 5-fold (x = 5, TGD5) increase of the initial tumor volume. Statistical analysis was performed by a one-way ANOVA with Tukey’s multiple comparison post-test using GraphPad Prism software (version 7). A value of p < 0.05 was considered statistically significant. The median survival was calculated by Kaplan–Meier curves using GraphPad Prism software (version 7).
Methods: The therapy was started at Day 0 by injecting mice with the radioligands, 6 days after PC-3 PIP tumor cell inoculation (4×10^6 cells in HBSS with Ca^2+/Mg^2+) on the right shoulder.
Endpoint criteria: Mice were euthanized when a predefined endpoint criterion was reached or when the study was finalized at Day 84. Endpoint criteria were defined as (i) body weight loss of >15%, (ii) a tumor volume of >800 mm^3 (iii) a combination of body weight loss of >10% and a tumor volume of >700 mm^3 or (iv) signs of unease and pain or a combination thereof.

[2] = system: PC-3 PIP/flu tumor-bearing mice; settings: for Biodistribution: Blood / Biodistribution: Bone / Biodistribution: Heart / Biodistribution: Intestines / Biodistribution: Kidneys / Biodistribution: Liver / Biodistribution: Lung / Biodistribution: Muscle / Biodistribution: PC-3 PIP tumor / Biodistribution: PC-3 flu tumor / Biodistribution: Salivary glands / Biodistribution: Spleen / Biodistribution: Stomach: 5.0 MBq, 1 nmol i.v.; for Tumor-to-blood / Tumor-to-kidney / Tumor-to-liver: PC-3 PIP tumor
Method: Biodistribution studies were performed 12–14 days after tumor cell inoculation when the tumor xenografts reached an average tumor volume of about ~50–200 mm^3 (Supplementary material). PSMA-617 was labeled with ^161Tb at a specific activity of 5.0 MBq/nmol and diluted in saline. […] The mice were sacrificed at 1 h, 4 h, 24 h, 48 h, or 96 h post injection (p.i.) and selected tissues and organs were collected, weighed, and measured using a γ-counter (Perkin Elmer, Wallac Wizard 1480). Groups of 3–5 mice were sacrificed at each time point. The results were decay-corrected and listed as percentage of the injected activity per gram of tissue mass (% IA/g). Data are presented as the average ± standard deviation (SD).
A p-value of < 0.05 was considered statistically significant.
Biodistribution studies were performed 12–14 days after tumor cell inoculation. The experimental procedure of the biodistribution studies is described in the main manuscript.

[3] = system: PSMA-negative PC-3 flu tumor cells; assay: Tumor cell uptake and internalization; assay type: cell-based; settings: 2–4 h incubation

**Q.** How did the First mouse euthanized ([1]; 5.0 MBq/mouse) turn out when `O=C([O-])CN1CCN(CC(=O)[O-])CCN(CC(=O)NCC2CCC(C(=O)NC(Cc3ccc4ccccc4c3)C(=O)NCCCCC(NC(=O)NC(CCC(=O)O)C(=O)O)C(=O)O)CC2)CCN(CC(=O)[O-])CC1.[161Tb+3]` (stereo not shown) [^161Tb-PSMA-617] was run?
**A.** 30 days

**Q.** And the Last mouse euthanized ([1]; 5.0 MBq/mouse)?
**A.** 66 days

**Q.** What about the TGDI2 ([1]; 5.0 MBq/mouse) of the same compound?
**A.** 4.2 ± 1.2

**Q.** What about the TGDI3 ([1]; 5.0 MBq/mouse) of the same compound?
**A.** 2.5 ± 0.6

**Q.** And the Median Survival ([1]; 5.0 MBq/mouse)?
**A.** 36 days

**Q.** What about the First mouse euthanized ([1]; 10 MBq/mouse) of the same compound?
**A.** 42 days

**Q.** And the “Mice still alive at the end of the study at Day 84” value ([1]; 10 MBq/mouse, n = 6)?
**A.** two

**Q.** What about the “Mice in which PC-3 PIP tumors disappeared entirely” value ([1]; 10 MBq/mouse, n = 6, over 12 weeks) of the same compound?
**A.** two of the six; also recorded: two out of six

**Q.** What about the Median Survival ([1]; 10 MBq/mouse) of the same compound?
**A.** 65 days

**Q.** What about the Last mouse euthanized ([1]; 10 MBq/mouse, study end at Day 84, 2 mice had not reached an endpoint) of the same compound?
**A.** 84^1) Day

**Q.** What about the “Biodistribution: Blood” value ([2]; 1 h p.i.) of the same compound?
**A.** 0.49 ± 0.16 %IA/g

**Q.** And the “Biodistribution: Bone” value ([2]; 1 h p.i.)?
**A.** 0.21 ± 0.07 %IA/g

**Q.** And the “Biodistribution: Heart” value ([2]; 1 h p.i.)?
**A.** 0.21 ± 0.05 %IA/g

**Q.** What about the “Biodistribution: Intestines” value ([2]; 1 h p.i.) of the same compound?
**A.** 0.26 ± 0.05 %IA/g

**Q.** And the “Biodistribution: Kidneys” value ([2]; 1 h p.i.)?
**A.** 9.6 ± 1.3 %IA/g

**Q.** What about the “Biodistribution: Liver” value ([2]; 1 h p.i.) of the same compound?
**A.** 0.28 ± 0.05 %IA/g

**Q.** What about the “Biodistribution: Lung” value ([2]; 1 h p.i.) of the same compound?
**A.** 0.66 ± 0.28 %IA/g

**Q.** What about the “Biodistribution: Muscle” value ([2]; 1 h p.i.) of the same compound?
**A.** 0.13 ± 0.06 %IA/g

**Q.** What about the “Biodistribution: PC-3 PIP tumor” value ([2]; 1 h p.i.) of the same compound?
**A.** 44 ± 5.3 %IA/g

**Q.** And the “Biodistribution: PC-3 flu tumor” value ([2]; 1 h p.i.)?
**A.** 0.39 ± 0.18 %IA/g

**Q.** And the “Biodistribution: Salivary glands” value ([2]; 1 h p.i.)?
**A.** 0.28 ± 0.13 %IA/g

**Q.** And the “Biodistribution: Spleen” value ([2]; 1 h p.i.)?
**A.** 0.54 ± 0.08 %IA/g

**Q.** What about the “Biodistribution: Stomach” value ([2]; 1 h p.i.) of the same compound?
**A.** 0.22 ± 0.05 %IA/g

**Q.** What about the Tumor-to-blood ([2]; 1 h p.i.) of the same compound?
**A.** 99 ± 27

**Q.** What about the Tumor-to-kidney ([2]; 1 h p.i.) of the same compound?
**A.** 4.7 ± 0.5

**Q.** What about the Tumor-to-liver ([2]; 1 h p.i.) of the same compound?
**A.** 163 ± 23

**Q.** And the “Biodistribution: Blood” value ([2]; 4 h p.i.)?
**A.** 0.08 ± 0.01 %IA/g

**Q.** And the “Biodistribution: Bone” value ([2]; 4 h p.i.)?
**A.** 0.09 ± 0.02 %IA/g

**Q.** And the “Biodistribution: Heart” value ([2]; 4 h p.i.)?
**A.** 0.05 ± 0.01 %IA/g

**Q.** What about the “Biodistribution: Intestines” value ([2]; 4 h p.i.) of the same compound?
**A.** 0.06 ± 0.01 %IA/g

**Q.** What about the “Biodistribution: Kidneys” value ([2]; 4 h p.i.) of the same compound?
**A.** 2.9 ± 0.14 %IA/g

**Q.** And the “Biodistribution: Liver” value ([2]; 4 h p.i.)?
**A.** 0.17 ± 0.02 %IA/g

**Q.** What about the “Biodistribution: Lung” value ([2]; 4 h p.i.) of the same compound?
**A.** 0.11 ± 0.01 %IA/g

**Q.** What about the “Biodistribution: Muscle” value ([2]; 4 h p.i.) of the same compound?
**A.** 0.03 ± 0.00 %IA/g

**Q.** And the “Biodistribution: PC-3 PIP tumor” value ([2]; 4 h p.i.)?
**A.** 49 ± 5.5 %IA/g

**Q.** What about the “Biodistribution: PC-3 flu tumor” value ([2]; 4 h p.i.) of the same compound?
**A.** 0.13 ± 0.02 %IA/g

**Q.** And the “Biodistribution: Salivary glands” value ([2]; 4 h p.i.)?
**A.** 0.07 ± 0.01 %IA/g

**Q.** And the “Biodistribution: Spleen” value ([2]; 4 h p.i.)?
**A.** 0.13 ± 0.01 %IA/g

**Q.** And the “Biodistribution: Stomach” value ([2]; 4 h p.i.)?
**A.** 0.08 ± 0.01 %IA/g

**Q.** What about the Tumor-to-blood ([2]; 4 h p.i.) of the same compound?
**A.** 640 ± 132

**Q.** And the Tumor-to-kidney ([2]; 4 h p.i.)?
**A.** 17 ± 1.6

**Q.** And the Tumor-to-liver ([2]; 4 h p.i.)?
**A.** 302 ± 64

**Q.** What about the “Biodistribution: Blood” value ([2]; 24 h p.i.) of the same compound?
**A.** 0.03 ± 0.00 %IA/g

**Q.** What about the “Biodistribution: Bone” value ([2]; 24 h p.i.) of the same compound?
**A.** 0.09 ± 0.01 %IA/g

**Q.** And the “Biodistribution: Heart” value ([2]; 24 h p.i.)?
**A.** 0.03 ± 0.00 %IA/g

**Q.** What about the “Biodistribution: Intestines” value ([2]; 24 h p.i.) of the same compound?
**A.** 0.03 ± 0.00 %IA/g

**Q.** What about the “Biodistribution: Kidneys” value ([2]; 24 h p.i.) of the same compound?
**A.** 1.1 ± 0.09 %IA/g

**Q.** And the “Biodistribution: Liver” value ([2]; 24 h p.i.)?
**A.** 0.11 ± 0.02 %IA/g

**Q.** What about the “Biodistribution: Lung” value ([2]; 24 h p.i.) of the same compound?
**A.** 0.11 ± 0.09 %IA/g

**Q.** What about the “Biodistribution: Muscle” value ([2]; 24 h p.i.) of the same compound?
**A.** 0.02 ± 0.00 %IA/g

**Q.** What about the “Biodistribution: PC-3 PIP tumor” value ([2]; 24 h p.i.) of the same compound?
**A.** 43 ± 5.5 %IA/g

**Q.** And the “Biodistribution: PC-3 flu tumor” value ([2]; 24 h p.i.)?
**A.** 0.08 ± 0.01 %IA/g

**Q.** And the “Biodistribution: Salivary glands” value ([2]; 24 h p.i.)?
**A.** 0.05 ± 0.01 %IA/g

**Q.** What about the “Biodistribution: Spleen” value ([2]; 24 h p.i.) of the same compound?
**A.** 0.08 ± 0.01 %IA/g

**Q.** What about the “Biodistribution: Stomach” value ([2]; 24 h p.i.) of the same compound?
**A.** 0.04 ± 0.00 %IA/g

**Q.** What about the Tumor-to-blood ([2]; 24 h p.i.) of the same compound?
**A.** 1668 ± 302

**Q.** What about the Tumor-to-kidney ([2]; 24 h p.i.) of the same compound?
**A.** 43 ± 10

**Q.** What about the Tumor-to-liver ([2]; 24 h p.i.) of the same compound?
**A.** 383 ± 65

**Q.** And the “Biodistribution: Blood” value ([2]; 48 h p.i.)?
**A.** 0.02 ± 0.00 %IA/g

**Q.** And the “Biodistribution: Bone” value ([2]; 48 h p.i.)?
**A.** 0.05 ± 0.01 %IA/g

**Q.** And the “Biodistribution: Heart” value ([2]; 48 h p.i.)?
**A.** 0.03 ± 0.00 %IA/g

**Q.** What about the “Biodistribution: Intestines” value ([2]; 48 h p.i.) of the same compound?
**A.** 0.02 ± 0.00 %IA/g

**Q.** What about the “Biodistribution: Kidneys” value ([2]; 48 h p.i.) of the same compound?
**A.** 0.58 ± 0.05 %IA/g

**Q.** What about the “Biodistribution: Liver” value ([2]; 48 h p.i.) of the same compound?
**A.** 0.12 ± 0.01 %IA/g

**Q.** And the “Biodistribution: Lung” value ([2]; 48 h p.i.)?
**A.** 0.04 ± 0.01 %IA/g

**Q.** And the “Biodistribution: Muscle” value ([2]; 48 h p.i.)?
**A.** 0.01 ± 0.00 %IA/g

**Q.** And the “Biodistribution: PC-3 PIP tumor” value ([2]; 48 h p.i.)?
**A.** 28 ± 4.1 %IA/g

**Q.** And the “Biodistribution: PC-3 flu tumor” value ([2]; 48 h p.i.)?
**A.** 0.06 ± 0.01 %IA/g

**Q.** What about the “Biodistribution: Salivary glands” value ([2]; 48 h p.i.) of the same compound?
**A.** 0.03 ± 0.00 %IA/g

**Q.** And the “Biodistribution: Spleen” value ([2]; 48 h p.i.)?
**A.** 0.07 ± 0.00 %IA/g

**Q.** What about the “Biodistribution: Stomach” value ([2]; 48 h p.i.) of the same compound?
**A.** 0.03 ± 0.00 %IA/g

**Q.** And the Tumor-to-blood ([2]; 48 h p.i.)?
**A.** 1346 ± 166

**Q.** What about the Tumor-to-kidney ([2]; 48 h p.i.) of the same compound?
**A.** 49 ± 7.2

**Q.** And the Tumor-to-liver ([2]; 48 h p.i.)?
**A.** 229 ± 30

**Q.** What about the “Biodistribution: Blood” value ([2]; 96 h p.i.) of the same compound?
**A.** 0.01 ± 0.00 %IA/g

**Q.** What about the “Biodistribution: Bone” value ([2]; 96 h p.i.) of the same compound?
**A.** 0.06 ± 0.01 %IA/g

**Q.** What about the “Biodistribution: Heart” value ([2]; 96 h p.i.) of the same compound?
**A.** 0.02 ± 0.00 %IA/g

**Q.** What about the “Biodistribution: Intestines” value ([2]; 96 h p.i.) of the same compound?
**A.** 0.12 ± 0.12 %IA/g

**Q.** What about the “Biodistribution: Kidneys” value ([2]; 96 h p.i.) of the same compound?
**A.** 0.40 ± 0.04 %IA/g

**Q.** What about the “Biodistribution: Liver” value ([2]; 96 h p.i.) of the same compound?
**A.** 0.10 ± 0.00 %IA/g

**Q.** And the “Biodistribution: Lung” value ([2]; 96 h p.i.)?
**A.** 0.03 ± 0.00 %IA/g

**Q.** And the “Biodistribution: Muscle” value ([2]; 96 h p.i.)?
**A.** 0.01 ± 0.00 %IA/g

**Q.** What about the “Biodistribution: PC-3 PIP tumor” value ([2]; 96 h p.i.) of the same compound?
**A.** 22 ± 4.3 %IA/g

**Q.** What about the “Biodistribution: PC-3 flu tumor” value ([2]; 96 h p.i.) of the same compound?
**A.** 0.04 ± 0.01 %IA/g

**Q.** What about the “Biodistribution: Salivary glands” value ([2]; 96 h p.i.) of the same compound?
**A.** 0.03 ± 0.00 %IA/g

**Q.** What about the “Biodistribution: Spleen” value ([2]; 96 h p.i.) of the same compound?
**A.** 0.07 ± 0.01 %IA/g

**Q.** What about the “Biodistribution: Stomach” value ([2]; 96 h p.i.) of the same compound?
**A.** 0.66 ± 1.01 %IA/g

**Q.** And the Tumor-to-blood ([2]; 96 h p.i.)?
**A.** 2053 ± 412

**Q.** And the Tumor-to-kidney ([2]; 96 h p.i.)?
**A.** 56 ± 9.7

**Q.** What about the Tumor-to-liver ([2]; 96 h p.i.) of the same compound?
**A.** 224 ± 33

**Q.** What about the “Uptake in PC-3 flu tumor cells” value [3] of the same compound?
**A.** < 0.5%
